Test results from patent publication US20220402948A1, “EGFR INHIBITOR, COMPOSITION AND PREPARATION METHOD THEREFOR” (BETTA PHARMACEUTICALS CO., LTD., priority 2019, published 2022).

Legend:
[1] = tested on: A431; experiment: A431 cell proliferation assay (CellTiter Glo, 72 hours); type: cell-based; conditions: Homo sapiens, A-431, 72 h, cell proliferation, A431, 72 hours, Table 2; read-out: A431 IC50
Outline: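 A431 cells (2000/well) exposed 72 h to compound at 1000 nM down to 0.2 nM in 3-fold steps, 0.1% DMSO (0.5% for some series). Viability by CellTiter-Glo luminescence; IC50 by four-parameter nonlinear regression.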

[2] = biological target: Ba/F3 cells with EGFR Δ19del/T790M/C797S mutation gene stably overexpressed (Homo sapiens, UniProt P00533, T790M/C797S, cells depend on it, form not given); experiment: Ba/F3-Δ19del/T790M/C797S cell proliferation assay (CellTiter Glo, 72 hours); type: cell-based; conditions: Table 2, read-out: EGFR Δ19del/T790M/C797S IC50
Chain of Ba/F3 cells with EGFR Δ19del/T790M/C797S mutation gene stably overexpressed (P00533 with tags, fused parts or gaps DEL746-750/T790M/C797S, form open): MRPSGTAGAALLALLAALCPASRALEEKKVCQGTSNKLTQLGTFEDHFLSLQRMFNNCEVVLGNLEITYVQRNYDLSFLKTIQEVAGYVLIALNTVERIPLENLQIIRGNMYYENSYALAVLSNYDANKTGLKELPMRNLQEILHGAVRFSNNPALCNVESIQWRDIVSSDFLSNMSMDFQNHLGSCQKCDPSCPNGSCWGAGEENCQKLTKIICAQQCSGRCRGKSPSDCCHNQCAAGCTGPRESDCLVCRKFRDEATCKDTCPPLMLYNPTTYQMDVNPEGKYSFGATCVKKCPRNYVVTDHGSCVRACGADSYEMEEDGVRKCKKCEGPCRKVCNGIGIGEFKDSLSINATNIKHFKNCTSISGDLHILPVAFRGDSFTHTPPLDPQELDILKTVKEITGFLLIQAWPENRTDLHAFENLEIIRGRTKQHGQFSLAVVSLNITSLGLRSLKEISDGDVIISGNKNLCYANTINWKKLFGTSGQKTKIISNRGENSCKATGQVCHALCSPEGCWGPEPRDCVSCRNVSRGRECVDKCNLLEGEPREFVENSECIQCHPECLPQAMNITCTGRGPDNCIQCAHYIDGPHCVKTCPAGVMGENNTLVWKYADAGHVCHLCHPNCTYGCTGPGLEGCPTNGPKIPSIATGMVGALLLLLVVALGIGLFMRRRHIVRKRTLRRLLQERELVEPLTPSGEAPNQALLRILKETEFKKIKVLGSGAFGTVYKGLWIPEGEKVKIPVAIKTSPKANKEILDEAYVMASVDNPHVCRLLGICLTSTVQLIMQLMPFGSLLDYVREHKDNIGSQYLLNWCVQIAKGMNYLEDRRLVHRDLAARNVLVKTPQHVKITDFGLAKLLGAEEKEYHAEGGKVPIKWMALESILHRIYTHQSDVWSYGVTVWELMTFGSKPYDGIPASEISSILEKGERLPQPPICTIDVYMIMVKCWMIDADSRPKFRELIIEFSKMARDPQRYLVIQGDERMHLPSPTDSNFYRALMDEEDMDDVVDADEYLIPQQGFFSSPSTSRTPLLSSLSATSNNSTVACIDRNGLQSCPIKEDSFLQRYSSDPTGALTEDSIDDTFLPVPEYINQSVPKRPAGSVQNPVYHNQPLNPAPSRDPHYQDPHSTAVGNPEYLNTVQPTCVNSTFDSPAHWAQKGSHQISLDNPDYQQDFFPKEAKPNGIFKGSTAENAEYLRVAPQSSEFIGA
Outline: (§1)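 Ba/F3 cells stably overexpressing wild-type EGFR or EGFR Δ19del/T790M/C797S were seeded at 2000 cells/well and incubated 72 h with compound. Viability was read by CellTiter-Glo luminescence, and IC50 came from a four-parameter logistic fit of signal against log concentration.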

[3] = biological target: EGFRΔ19del/T790M/C797S (Homo sapiens, UniProt P00533, T790M/C797S, form not given); experiment: EGFR Δ19del/T790M/C797S kinase test (mobility variation analysis, Caliper EZ Reader); type: biochemical; conditions: kinase enzymatic activity, Table 1
Chain of EGFRΔ19del/T790M/C797S (P00533 with tags, fused parts or gaps DEL746-750/T790M/C797S, form open): as above
Outline: (§2)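 Kinase pre-incubated with compound 10 minutes at room temperature, then ATP plus peptide substrate added; substrate conversion read by mobility shift after stop solution. Percent inhibition normalized to no-compound and no-enzyme controls; IC50 from variable-slope log(inhibitor) fit.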

[4] = biological target: IGF1R (Homo sapiens, UniProt P08069); experiment: IGF1R kinase test (mobility variation analysis, Caliper EZ Reader); type: biochemical; conditions: kinase enzymatic activity, Table 1; read-out: EGFR IGF1R IC50
Outline: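 Kinase preincubated 10 min at room temperature with compound (10-point 3-fold series, top 3000 nM), then ATP and substrate added and reacted at room temperature. Substrate conversion read by mobility-shift (Caliper EZ Reader); % inhibition vs no-enzyme and no-compound controls fitted to variable-slope curve for IC50.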

[5] = biological target: Ba/F3-EGFR wild-type cell line (Homo sapiens, UniProt P00533); experiment: Ba/F3-EGFR wild-type cell proliferation assay (CellTiter Glo, 72 hours); type: cell-based; conditions: Table 2, read-out: EGFR WT IC50
Chain of Ba/F3-EGFR wild-type cell line (P00533 whole entry, change not shown): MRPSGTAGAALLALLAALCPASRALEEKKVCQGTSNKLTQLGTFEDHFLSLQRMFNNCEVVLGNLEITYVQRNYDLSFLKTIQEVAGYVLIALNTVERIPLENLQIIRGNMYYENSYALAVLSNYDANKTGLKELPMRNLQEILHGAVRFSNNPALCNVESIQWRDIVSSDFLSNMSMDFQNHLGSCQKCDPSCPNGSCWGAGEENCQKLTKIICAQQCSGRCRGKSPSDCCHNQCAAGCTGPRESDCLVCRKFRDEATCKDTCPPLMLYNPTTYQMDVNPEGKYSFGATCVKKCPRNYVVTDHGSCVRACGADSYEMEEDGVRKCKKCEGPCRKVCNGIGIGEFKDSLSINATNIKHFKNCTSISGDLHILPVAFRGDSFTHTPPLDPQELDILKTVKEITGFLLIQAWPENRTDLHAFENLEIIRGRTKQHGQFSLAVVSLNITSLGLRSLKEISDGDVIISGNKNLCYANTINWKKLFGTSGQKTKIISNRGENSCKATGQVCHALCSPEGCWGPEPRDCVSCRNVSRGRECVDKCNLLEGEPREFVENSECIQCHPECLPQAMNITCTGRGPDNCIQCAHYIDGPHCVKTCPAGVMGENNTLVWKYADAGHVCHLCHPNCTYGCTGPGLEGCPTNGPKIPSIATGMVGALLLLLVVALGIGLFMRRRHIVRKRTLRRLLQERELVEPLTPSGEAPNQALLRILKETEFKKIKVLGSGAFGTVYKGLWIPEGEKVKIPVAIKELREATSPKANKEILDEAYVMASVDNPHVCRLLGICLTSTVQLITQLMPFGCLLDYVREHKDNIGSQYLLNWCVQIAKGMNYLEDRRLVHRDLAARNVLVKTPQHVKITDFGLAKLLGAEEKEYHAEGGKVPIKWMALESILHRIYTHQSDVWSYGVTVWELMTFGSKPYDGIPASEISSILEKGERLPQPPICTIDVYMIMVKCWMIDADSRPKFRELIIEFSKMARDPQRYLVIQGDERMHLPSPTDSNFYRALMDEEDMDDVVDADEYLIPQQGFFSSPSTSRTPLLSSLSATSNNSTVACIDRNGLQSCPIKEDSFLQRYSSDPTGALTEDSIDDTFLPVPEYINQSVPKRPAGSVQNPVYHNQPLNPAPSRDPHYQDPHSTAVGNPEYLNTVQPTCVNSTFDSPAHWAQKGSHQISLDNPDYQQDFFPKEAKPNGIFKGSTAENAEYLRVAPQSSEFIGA
Outline: as §1

[6] = biological target: EGFR WT (Homo sapiens, UniProt P00533); experiment: EGFR WT kinase test (mobility variation analysis, Caliper EZ Reader); type: biochemical; conditions: kinase enzymatic activity, Table 1
Chain of EGFR WT (P00533 25-1210): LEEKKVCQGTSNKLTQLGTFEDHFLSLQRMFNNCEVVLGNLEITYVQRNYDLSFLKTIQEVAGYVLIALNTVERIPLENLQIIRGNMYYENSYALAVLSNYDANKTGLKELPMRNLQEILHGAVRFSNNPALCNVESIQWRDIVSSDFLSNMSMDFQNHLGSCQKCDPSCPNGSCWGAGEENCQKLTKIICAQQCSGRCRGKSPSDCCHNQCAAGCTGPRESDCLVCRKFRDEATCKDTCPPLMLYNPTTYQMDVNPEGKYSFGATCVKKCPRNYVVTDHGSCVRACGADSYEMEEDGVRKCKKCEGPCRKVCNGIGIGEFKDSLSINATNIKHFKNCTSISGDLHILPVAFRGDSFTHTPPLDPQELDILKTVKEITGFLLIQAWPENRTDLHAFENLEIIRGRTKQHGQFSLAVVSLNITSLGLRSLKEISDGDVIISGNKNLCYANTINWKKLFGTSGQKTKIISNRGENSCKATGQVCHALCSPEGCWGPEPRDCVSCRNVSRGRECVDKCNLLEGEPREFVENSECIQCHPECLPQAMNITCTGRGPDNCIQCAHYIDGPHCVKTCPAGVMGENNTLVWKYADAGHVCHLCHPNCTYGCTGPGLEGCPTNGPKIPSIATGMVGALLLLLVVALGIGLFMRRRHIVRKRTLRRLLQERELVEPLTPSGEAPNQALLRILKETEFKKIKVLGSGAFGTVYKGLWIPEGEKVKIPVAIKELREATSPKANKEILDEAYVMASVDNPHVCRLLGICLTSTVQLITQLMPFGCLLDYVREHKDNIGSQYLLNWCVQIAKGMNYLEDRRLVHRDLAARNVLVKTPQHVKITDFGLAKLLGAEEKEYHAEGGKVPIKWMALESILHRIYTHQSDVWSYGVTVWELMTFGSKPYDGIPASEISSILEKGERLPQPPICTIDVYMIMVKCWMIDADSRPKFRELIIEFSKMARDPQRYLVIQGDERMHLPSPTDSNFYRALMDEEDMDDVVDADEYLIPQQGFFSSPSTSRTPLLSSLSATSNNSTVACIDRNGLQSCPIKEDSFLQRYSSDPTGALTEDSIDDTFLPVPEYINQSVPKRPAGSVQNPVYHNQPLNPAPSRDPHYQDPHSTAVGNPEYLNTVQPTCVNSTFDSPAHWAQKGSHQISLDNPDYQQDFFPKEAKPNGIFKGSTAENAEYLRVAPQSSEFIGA
Outline: as §2

Row | IC50 [1] | GI50 [2] | IC50 [3] | IC50 [4] | GI50 [5] | IC50 [6] | Structure (SMILES)
1 | 1510 nM | 27.7 nM | 0.3 nM | 127 nM | 407 nM | 22.2 nM | CCc1cc(Nc2ncc(Br)c(Nc3ccc(-c4nc(Cl)cs4)cc3P(C)(C)=O)n2)c(OC)cc1N1CCC(N2CCN(C)CC2)CC1 [Compound K-073, (2-((5-Bromo-2-((5-ethyl-2-methoxy-4-(4-(4-methylpiperazin-1-yl)piperidin-1-yl)phenyl)amino)pyrimidin-4-yl)amino)-5-(4-chlorothiazol-2-yl)phenyl)dimethylphosphine oxide]
2 | 2760 nM | 4.2 nM | 0.4 nM | 253 nM | 267 nM | 35.8 nM | CCc1cc(Nc2ncc(Br)c(Nc3ccc(-c4ccc(OC)cn4)cc3P(C)(C)=O)n2)c(OC)cc1N1CCC(N2CCN(C)CC2)CC1 [Compound K-074, (2-((5-Bromo-2-((5-ethyl-2-methoxy-4-(4-(4-methylpiperazin-1-yl)piperidin-1-yl)phenyl)amino)pyrimidin-4-yl)amino)-5-(5-methoxypyridin-2-yl)phenyl)dimethylphosphine oxide]
3 | 7650 nM | 50.9 nM | 0.5 nM | 997 nM | 432 nM | 149 nM | CCc1cc(Nc2ncc(Br)c(Nc3ccc(-c4nn(C)c5ncccc45)cc3P(C)(C)=O)n2)c(OC)cc1N1CCC(N(C)C)CC1 [Compound K-079, (2-((5-Bromo-2-((4-(4-(dimethylamino)piperidin-1-yl)-5-ethyl-2-methoxyphenyl)amino)pyrimidine-4-yl)amino)-5-(1-methyl-1H-pyrazolo[3,4-b]pyridin-3-yl)phenyl)dimethylphosphine oxide]
4 | 4820 nM | 7.4 nM | 0.1 nM | 96.1 nM | 245 nM | 17.2 nM | COc1cnn(-c2ccc(Nc3nc(Nc4cc(C)c(N5CCC(N6CCCCC6)CC5)cc4OC)ncc3Br)c(P(C)(C)=O)c2)c1 [Compound K-087]
5 | > 10000 nM | 14.6 nM | 0.3 nM | 170 nM | 285 nM | 31 nM | COc1cnn(-c2ccc(Nc3nc(Nc4cc(C)c(N5CCN(C6CCN(C)CC6)CC5)cc4OC)ncc3Br)c(P(C)(C)=O)c2)c1 [Compound K-088]
6 | > 10000 nM | 9.5 nM | 0.3 nM | 259 nM | 400 nM | 169 nM | COc1cnn(-c2ccc(Nc3nc(Nc4cc(C)c(N5CCN(C6CCCC6)CC5)cc4OC)ncc3Br)c(P(C)(C)=O)c2)c1 [Compound K-089, (2-((5-Bromo-2-((4-(4-cyclopentylpiperazin-1-yl)-2-methoxy-5-methylphenyl)amino)pyrimidin-4-yl)amino)-5-(4-methoxy-1H-pyrazol-1-yl)phenyl)dimethylphosphine oxide]
7 | 2320 nM | 18.4 nM | 0.3 nM | 202 nM | 467 nM | 28.2 nM | CCc1cc(Nc2ncc(Br)c(Nc3ccc(-n4cc(COC)cn4)cc3P(C)(C)=O)n2)c(OC)cc1N1CCC(N2CCN(C)CC2)CC1 [Compound K-090]
8 | 3250 nM | 64.2 nM | 0.4 nM | 378 nM | 204 nM | 23.1 nM | CCc1cc(Nc2ncc(Cl)c(Nc3ccc(-c4cnn5c4CCCC5)cc3P(C)(C)=O)n2)c(OC)cc1N1CCC(N2CCN(C)CC2)CC1 [Compound K-104, (2-((5-Chloro-2-((5-ethyl-2-methoxy-4-(4-(4-methylpiperazin-1-yl)piperidin-1-yl)phenyl)amino)pyrimidin-4-yl)amino)-5-(4,5,6,7-tetrahydropyrazolo[1,5-a]pyridin-3-yl)phenyl)dimethylphosphine oxide]
